Consider two compounds from patent publication US20110054034A1, “METHODS OF USING […] AS ANTIMICROBIAL AGENTS” (priority 2008, published 2011).

Holding throughout (assay type): in vivo
The subject of test [1] is gram+bacterial infection on the skin. Briefly: Treating a topical infection in a human. The settings on record: 2.5% cream applied twice daily, after about 4 days. The source says: A 50 kg person is diagnosed by a dermatologist with a gram+bacterial infection on the skin of their left foot. They prescribed a 2.5% cream of 5-bromo-2-[[(2E)-3-(2-naphthalenyl)-1-oxo-2-butenyl]amino]benzoic acid which they applied twice daily.

In test [2] the test system is badly infected wound. Briefly: Treating a systemic infection in a dog (infected wound). The settings on record: 15 kg dog, 300 mg twice a day mixed in food. The procedure: A 15 kg dog with a badly infected wound is given 300 mg twice a day mixed in his food of trans-3-(naphth-2-yl)-but-2-enoic acid-N-(2-carboxyphenyl)amide. After 2 days the wound looks better and after 5 days it is almost healed.

Test [3] concerns S. aureus. Briefly: Treating a systemic infection in a human. The settings on record: two 300 mg tablets three daily. The method, then: A 70 kg person has a 102° fever and a bad cough. An internist diagnoses their problem as a systemic gram+bacterial infection of S. aureus. They prescribe trans-3-(naphth-2-yl)but-2-enoic acid-N-(2-carboxyphenyl)amide with the directions to take two 300 mg tablets three daily which the patient does.

As for `C/C(=C\C(=O)Nc1ccc(Br)cc1C(=O)O)c1ccc2ccccc2c1` [5-bromo-2-[[(2E)-3-(2-naphthalenyl)-1-oxo-2-butenyl]amino]benzoic acid], in test [1], the “appearance of the skin” value is “appears normal” and the “gram+bacterial infection on the skin of the foot” value is given as “the infection was gone”.

`C/C(=C\C(=O)Nc1ccccc1C(=O)O)c1ccc2ccccc2c1` [trans-3-(naphth-2-yl)-but-2-enoic acid-N-(2-carboxy-phenyl)-amide]: the “appearance of the infected wound” value in test [2] (after 2 days) is given as “looks better”. In addition, in test [2] (after 5 days), the “healing of the infected wound” value was “almost healed”. Further, in test [3] (after five days), the cough result was “cough is gone” and the temperature entry is recorded as “temperature is normal”. In test [3] (after two days), the fever result is “the fever comes down”.
